# From patent US11981750B2 (priority 2016, dated 2024)
# Starred links: 1 amine or outer side, 2 acyl side, 3 side chain; linkers in the order of their positions; H or OH if unused. Non-standard residues stand in square brackets, D forms with d. Residues, ends and D or L forms follow the SMILES beside them. *: point of attachment. TtdDga = O=C(COCC(=O)[*:2])NCCCOCCOCCOCCCN[*:1]; Arachidoyl = CCCCCCCCCCCCCCCCCCCC(=O)*; NMeV = CN[CH](C(=O)O)C(C)C
# How the values were obtained:
# [1] = test system: anti-Map antibodies in sera from bovine infected by Map; assay: Antibody ELISA with bovine sera (Map-infected versus healthy controls); assay type: binding; conditions: for ROC analysis of ELISA antibody response, area under the curve: 60 MAP+ bovine sera and 53 control sera
# [2] = test system: PBMCs isolated from control cows and cows naturally infected with Map; assay: Cytokine secretion by PBMCs after 24-hour stimulation with Map lipopeptides; assay type: cell-based, cattle; conditions: 1, 5, 10 μg/ml
# Protocol: Peripheral blood mononuclear cells (PBMCs) were isolated from control non-infected (n=4) and cattle naturally infected with C-type Map (n=4) to determine if lipoproteins, L3P and L5P (structures disclosed in FIG. 9), can elicit immunological responses. Sixty ml of blood was collected via jugular venipuncture into a syringe containing 2× acid-citrate-dextrose to obtain PBMCs.
# PBMCs were resuspended at a final concentration of 8×10^6/ml in complete medium consisting of RPMI-1640 with 2 mM 1-glutamine and 25 mM HEPES (Gibco, Grand Island, NY) and supplemented with 10% fetal calf serum (Gibco), 100λ penicillin-streptomycin (Gibco). Cells were plated in 24-well culture plates and incubated for 24 hr at 39° C. in 5% CO2 in a humidified atmosphere with the following treatment groups, nonstimulated (NS; negative control), pokeweed mitogen (PWM, 10 μg/ml, positive control; Sigma, St. Louis, MO), and four antigens that included whole cell sonicated extracts of Map strains K-10 and S397 (10 μg/ml); lipoproteins L3P and L5P (1, 5, 10 μg/ml concentrations). The lipoproteins had to be solubilized in 100% methanol to 1 mg/ml concentrations and then diluted in the complete medium to final concentrations indicated above. […] After a 24-hr stimulation, the supernatants were harvested by centrifugation at 400×g for 5 min. Supernatants were removed without disturbing the cells in culture and stored at −20° C. until cytokine measurement. Cytokines IFN-γ, IL-1, IL-2, IL-4, IL-6 and TNF-α were all measured using Ciraplex bovine multiplex cytokine arrays (Aushon Biosystems, Billerica, MA).
# [3] = test system: sera of animals infected by M. bovis; assay type: binding, bovine; conditions: serial twofold dilution of sera
# [4] = test system: PBMCs isolated from cows naturally infected with Map; assay: Flow cytometry of CD25+ T and B cells after PBMC stimulation with lipopeptides; assay type: cell-based, cattle
# [5] = test system: sheep sera naturally or experimentally infected with S-type strains of Map; assay: Antibody ELISA with sheep sera infected with S-type strains of Map; assay type: binding; conditions: control n=15, positive n=39
# physchem = conditions: organic solvents (DMSO, CHCl3, CH2Cl2, MeOH and EtOH)
# [6] = PBMCs from infected cows, lipopeptide 1, 5, 10 μg/ml
SMILES,"ROC analysis of ELISA antibody response, area under the curve ([1]; antigen in PBS)","ROC analysis of ELISA antibody response, area under the curve ([1]; antigen in ethanol)","ELISA antibody response against the lipid moiety of L5P, discrimination of control from infected animals ([1]; lipid solubilized in ethanol, bovine sera)",effect of lipopeptide concentration on TNF-α secretion by PBMCs ([2]; P<0.0006),IFN-γ cytokine response ([2]; 24-hr stimulation),IL-1β cytokine response ([2]; 24-hr stimulation),TNF-α cytokine response ([2]; 24-hr stimulation),cross-reaction with sera of animals infected by M. bovis [3],"CD25+ B cells response [4, 6]","proliferation of CD25+ CD8 T cells [4, 6]","CD25+ CD4 or CD25+ γδ T cell populations, difference between L3P and L5P ([4]; data not shown)",immunodetection of L5P by sheep sera (anti-L5P antibodies) [5],solubility in water or aqueous buffers,solubility (physchem)
CCC(C)C(NC(=O)C(C(C)C)N(C)C(=O)C(N)Cc1ccccc1)C(=O)NC(Cc1ccccc1)C(=O)NC(C)C(=O)NCCCOCCOCCOCCCNC(=O)COCC(=O)O (stereo not drawn) [L5P^H2O] (H-F[NMeV]IFA-TtdDga; configuration not given here),0.9453,0.9313,,,,,,,,,,,,
"CCCCCCCCCCCCCCCCCCCC(=O)O [lipid moiety, eicosanoic acid]",,,does not discriminate control from infected animals,,,,,,,,,,,
CCCCCCCCCCCCCCCCCCCC(=O)N[C@H](Cc1ccccc1)C(=O)N(C)[C@H](C(=O)N[C@H](C(=O)N[C@@H](Cc1ccccc1)C(=O)N[C@@H](C)C(=O)OC)[C@@H](C)CC)C(C)C [L5P] (Arachidoyl-[dF][NMeV]IFA-OMe),,0.97,,dose-dependent effect,elicited cytokine responses,elicited cytokine responses,elicited cytokine responses,does not cross-react,stronger response compared to L3P,remained static,No significant differences,less than half of the sheep sera do not appear to contain anti-L5P antibodies,insoluble,< 1000 µg/mL
